{"source": "paper PMC3445653", "about": "(Neuropharmacology, 2012)", "key": {"[1]": {"system": "baseline postsynaptic AMPAR responses in CA1 pyramidal cells of hippocampal slices", "assay": "Baseline postsynaptic AMPAR-mediated EPSCs", "format": "cell-based, Sprague Dawley rats", "conditions": "5 μM scrambled ZIP; p = 0.6, 1 min before application vs 15 min after; n = 4"}, "PKMζ [2]": {"molecular_target": "T1, PKMζ (Homo sapiens, UniProt Q05513)", "T1 sequence (Q05513 1-409 isoform Q05513-2)": "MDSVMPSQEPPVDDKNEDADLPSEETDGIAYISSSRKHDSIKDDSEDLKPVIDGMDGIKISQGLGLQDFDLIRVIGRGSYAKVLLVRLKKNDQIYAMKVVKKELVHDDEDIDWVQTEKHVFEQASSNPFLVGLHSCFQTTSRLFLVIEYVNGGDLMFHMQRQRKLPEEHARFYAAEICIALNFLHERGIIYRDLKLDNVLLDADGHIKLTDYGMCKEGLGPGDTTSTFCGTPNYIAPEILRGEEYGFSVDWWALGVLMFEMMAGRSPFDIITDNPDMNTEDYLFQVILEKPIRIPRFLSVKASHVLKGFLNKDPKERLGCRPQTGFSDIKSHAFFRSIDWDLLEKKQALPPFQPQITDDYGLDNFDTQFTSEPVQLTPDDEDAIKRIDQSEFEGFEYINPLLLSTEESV", "assay": "PKMζ phosphorylation assay, PKCε substrate", "format": "biochemical"}, "LTP maintenance": {"system": "LTP maintenance", "conditions": "cited from earlier work"}, "PKMζ [3]": {"molecular_target": "T1, PKMζ", "conditions": "ref Ling et al., 2002; cited from earlier work"}, "PKMζ-RFP fusion protein": {"system": "PKMζ-RFP fusion protein", "conditions": "ref Wu-Zhang et al., 2012, cited from earlier work"}, "catalytic domain of PKC": {"system": "catalytic domain of PKC", "conditions": "ref Herbert et al., 1990, cited from earlier work"}, "[4]": {"system": "PDK1 phosphorylation of N-terminally tagged, eGFP-PKMζ overexpressed in 293T cells", "assay": "Activation loop phosphorylation of eGFP-PKMζ overexpressed in 293T cells", "format": "cell-based", "conditions": "100 nM for 4 hr; A. Tcherepanov and T. C. Sacktor, unpublished data"}, "[5]": {"system": "PDK1 phosphorylation of PKMζ (T410)", "assay": "Activation loop", "format": "cell-based, Sprague Dawley rats", "conditions": "100 nM for 4 hr, control vs staurosporine p = 0.9, n = 5"}, "[6]": {"system": "baseline fEPSPs in hippocampal slices", "assay": "Baseline fEPSP in hippocampal slices", "format": "cell-based, Sprague Dawley rats", "conditions": "100 nM; p = 0.8 between 10 and 60 min; n = 4"}, "LTP induction": {"system": "LTP induction", "conditions": "100 nM; hippocampal slices; ref Ling et al., 2002; cited from earlier work"}}, "note": "Entries after “also recorded” stand apart in the source; their conditions may differ. Where two headings read alike, the source gives them in different places."}
{"compound": "myr-RLYRKRIWRSAGR-OH [scrambled ZIP]", "values": [{"measurement": "effect on baseline postsynaptic AMPAR responses", "setting": "[1]", "result": "no effect"}, {"measurement": "efficacy on inhibiting PKMζ biochemically in vitro relative to ZIP", "setting": "PKMζ [2]; Fig. 4A, right, compared with ZIP", "result": "less effective"}, {"measurement": "inhibition of PKMζ at higher doses", "setting": "PKMζ [2]; higher doses, Fig. 4A, right", "result": "will also inhibit PKMζ at higher doses"}, {"measurement": "effect on LTP maintenance", "setting": "LTP maintenance; dose equivalent to ZIP (5 μM), ref Serrano et al., 2005", "result": "ineffective"}]}
{"compound": "COc1ccc2c(c[n+](C)c3c4cc5c(cc4ccc23)OCO5)c1OC", "note": "[chelerythrine]", "values": [{"measurement": "inhibition of PKM forms", "setting": "PKMζ [3]", "result": "highly effective on PKM forms; also recorded: particularly effective on PKM forms"}, {"measurement": "inhibition of PKMζ fusion protein in transfected cultured cells", "setting": "PKMζ-RFP fusion protein", "result": "did not inhibit"}, {"measurement": "inhibition of PKMζ, 10 μM DTT", "setting": "PKMζ [2]; DTT 10 μM, PKMζ 5 nM, 25 μM PKCε substrate, n = 4", "result": "effective"}, {"measurement": "inhibition of PKMζ, 1 mM DTT", "setting": "PKMζ [2]; DTT 1 mM, PKMζ 5 nM, 25 μM PKCε substrate, n = 4", "result": "much less effective"}, {"measurement": "sensitivity to redox state", "setting": "PKMζ [2]; high levels of dithiothreitol (DTT), PKMζ 5 nM", "result": "redox-sensitive inhibitor of PKMζ; also recorded: sensitive to redox state"}, {"measurement": "mode of inhibition", "setting": "catalytic domain of PKC; inhibition of substrate binding", "result": "competitive inhibitors of substrate binding"}, {"measurement": "inhibition of catalytic domain of PKC", "setting": "catalytic domain of PKC; Thompson and Fields, 1996", "result": "inhibitor of the catalytic domain of PKC"}]}
{"compound": "CN[C@@H]1C[C@H]2O[C@@](C)([C@@H]1OC)n1c3ccccc3c3c4c(c5c6ccccc6n2c5c31)C(=O)NC4", "note": "[staurosporine]", "values": [{"measurement": "PDK1 phosphorylation of eGFP-PKMζ", "setting": "[4]", "result": "no effect"}, {"measurement": "phosphorylation state of the activation loop of PKMζ (T410P)", "setting": "[5]", "result": "no effect"}, {"measurement": "phosphorylation state of the activation loop of PKMζ (T410P)", "setting": "[5]; listed as Staurosporine", "result": "does not alter the phosphorylation state"}, {"measurement": "activation loop phosphorylation of overexpressed PKMζ-RFP", "setting": "PKMζ-RFP fusion protein; cultured cells", "result": "reduce activation loop phosphorylation"}, {"measurement": "effect on baseline fEPSP", "setting": "[6]", "result": "no effect on baseline"}, {"measurement": "effect on LTP induction", "setting": "LTP induction", "result": "prevented LTP induction; also recorded: block LTP induction"}, {"measurement": "effect on LTP maintenance", "setting": "LTP maintenance; 100 nM, 4 hours, hippocampal slices, ref Ling et al., 2002", "result": "does not reverse LTP maintenance; also recorded: but not LTP maintenance"}]}
